# Experimental data: patent US11040981B2, “Pyrrolotriazine compounds and methods of inhibiting TAM kinases” (Syros Pharmaceuticals, Inc., priority 2017, dated 2021)
# How the values were obtained:
# MERTK = molecular target: T1, MERTK (Homo sapiens, UniProt Q12866); experiment: TR-FRET kinase activity assay, MERTK; type: biochemical; conditions: for IC50: TR-FRET activity assay, ATP at Km, 60 minutes, read-out: Mer IC50; for FLT3/Mer ratio (FLT3 IC50/Mer IC50): ratio of Mer to FLT3: FLT3 IC50/Mer IC50
# T1 sequence (Q12866 21-999): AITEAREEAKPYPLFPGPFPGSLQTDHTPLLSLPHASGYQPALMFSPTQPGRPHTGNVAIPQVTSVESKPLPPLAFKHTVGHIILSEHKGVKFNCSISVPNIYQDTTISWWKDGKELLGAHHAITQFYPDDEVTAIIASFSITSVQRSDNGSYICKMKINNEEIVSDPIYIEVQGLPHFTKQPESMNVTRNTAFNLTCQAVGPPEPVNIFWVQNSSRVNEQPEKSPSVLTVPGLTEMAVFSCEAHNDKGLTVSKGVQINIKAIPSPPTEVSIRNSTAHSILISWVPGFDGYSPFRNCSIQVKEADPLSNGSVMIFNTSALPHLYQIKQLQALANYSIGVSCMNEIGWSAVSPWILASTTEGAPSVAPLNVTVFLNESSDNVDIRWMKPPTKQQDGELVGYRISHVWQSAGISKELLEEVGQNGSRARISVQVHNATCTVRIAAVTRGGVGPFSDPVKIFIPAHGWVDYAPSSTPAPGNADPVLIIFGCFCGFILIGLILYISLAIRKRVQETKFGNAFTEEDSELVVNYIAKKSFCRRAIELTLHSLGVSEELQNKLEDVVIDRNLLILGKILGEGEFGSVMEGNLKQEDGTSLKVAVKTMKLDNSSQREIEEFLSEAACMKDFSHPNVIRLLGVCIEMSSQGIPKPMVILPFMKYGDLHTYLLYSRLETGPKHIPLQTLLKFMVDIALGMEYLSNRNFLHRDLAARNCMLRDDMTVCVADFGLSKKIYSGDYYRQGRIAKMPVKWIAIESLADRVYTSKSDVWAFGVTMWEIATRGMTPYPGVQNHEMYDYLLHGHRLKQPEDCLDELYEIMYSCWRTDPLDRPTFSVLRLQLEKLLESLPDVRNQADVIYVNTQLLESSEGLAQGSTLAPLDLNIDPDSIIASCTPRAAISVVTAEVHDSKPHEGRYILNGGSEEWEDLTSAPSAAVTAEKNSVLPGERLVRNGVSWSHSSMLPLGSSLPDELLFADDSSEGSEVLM
# Method in brief: (§1)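 Enzyme, fluorescent peptide substrate and compound were mixed, and the reaction was started with ATP at each kinase's Km, in 50 mM HEPES pH 7.5, 10 mM MgCl2, 1 mM EGTA, 0.01% Brij 35, 1 mM DTT at RT. After 60 minutes EDTA quench, Eu-labelled phospho-specific antibody was added for 30 minutes, and IC50 was derived from TR-FRET signal loss.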
# FLT3 = molecular target: T2, FLT3 (Homo sapiens, UniProt P36888); experiment: TR-FRET kinase activity assay, FLT3; type: biochemical; conditions: ATP at Km, 60 minutes
# T2 sequence (P36888 27-993): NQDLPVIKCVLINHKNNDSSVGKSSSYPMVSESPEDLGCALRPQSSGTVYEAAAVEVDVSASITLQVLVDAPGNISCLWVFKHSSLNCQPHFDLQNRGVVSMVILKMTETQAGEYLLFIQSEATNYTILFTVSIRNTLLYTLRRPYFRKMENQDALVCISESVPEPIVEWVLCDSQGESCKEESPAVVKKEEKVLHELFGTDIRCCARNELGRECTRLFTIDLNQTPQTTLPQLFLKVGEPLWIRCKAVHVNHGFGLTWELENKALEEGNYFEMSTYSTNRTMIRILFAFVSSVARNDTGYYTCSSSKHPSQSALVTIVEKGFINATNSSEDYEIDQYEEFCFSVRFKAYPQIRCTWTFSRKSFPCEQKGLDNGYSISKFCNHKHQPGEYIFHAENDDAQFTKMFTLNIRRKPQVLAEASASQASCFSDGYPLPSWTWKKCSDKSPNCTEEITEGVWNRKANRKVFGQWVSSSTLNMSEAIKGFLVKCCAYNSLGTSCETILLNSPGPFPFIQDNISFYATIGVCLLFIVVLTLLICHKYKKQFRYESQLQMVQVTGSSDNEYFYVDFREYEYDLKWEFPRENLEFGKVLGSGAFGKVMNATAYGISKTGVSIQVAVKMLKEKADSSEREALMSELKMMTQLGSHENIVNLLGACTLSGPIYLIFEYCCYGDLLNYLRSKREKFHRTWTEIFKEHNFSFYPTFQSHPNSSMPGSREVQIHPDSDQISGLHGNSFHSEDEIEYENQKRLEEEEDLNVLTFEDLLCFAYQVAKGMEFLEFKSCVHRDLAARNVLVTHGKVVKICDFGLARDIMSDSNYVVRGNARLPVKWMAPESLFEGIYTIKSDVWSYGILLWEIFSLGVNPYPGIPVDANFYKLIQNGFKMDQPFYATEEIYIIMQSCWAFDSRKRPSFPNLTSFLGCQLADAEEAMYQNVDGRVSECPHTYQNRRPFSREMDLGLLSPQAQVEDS
# Method in brief: as §1
SMILES,IC50 (MERTK) [nM],FLT3/Mer ratio (FLT3 IC50/Mer IC50) (MERTK),IC50 (FLT3) [nM]
COC[C@H](C)Nc1ncc2c(-c3cccc(CN4CC[C@@H](F)C4)c3)cc([C@H]3CC[C@H](O)CC3)n2n1 [Compound 224],≤ 100,+++ (“+++” represents a ratio of >100),100 to 1000
CC(CCF)Nc1ncc2c(-c3ccc(CN4CCOCC4)cc3)cc(C3CCC(O)CC3)n2n1 (stereo not drawn) [Compound 244],≤ 100,++ (“++” represents a ratio of between 10 and 100),≤ 100
COCC(C)Nc1ncc2c(-c3ccc4nccn4c3)cc(C3CCC(O)CC3)n2n1 (stereo not drawn) [Compound 193],≤ 100,+++ (“+++” represents a ratio of >100),1000 to 10000
COC[C@H](C)Nc1ncc2c(-c3ccc(C(=O)N4CCS(=O)(=O)CC4)cc3)cc([C@H]3CC[C@H](O)CC3)n2n1 [Compound 197],≤ 100,+++ (“+++” represents a ratio of >100),100 to 1000
COC[C@H](C)Nc1ncc2c(-c3cccc4c3CNC4=O)cc([C@H]3CC[C@H](O)CC3)n2n1 [Compound 210],≤ 100,+++ (“+++” represents a ratio of >100),1000 to 10000
Cc1cc(-c2cc([C@H]3CC[C@H](O)CC3)n3nc(N[C@@H](C)CC(F)(F)F)ncc23)ccn1 [Compound 213],≤ 100,+++ (“+++” represents a ratio of >100),≤ 100
COC[C@H](C)Nc1ncc2c(-c3ccn(C)n3)cc([C@H]3CC[C@H](O)CC3)n2n1 [Compound 208],≤ 100,+++ (“+++” represents a ratio of >100),1000 to 10000
CC(CCOC(F)F)Nc1ncc2c(-c3ccc(CN4CCOCC4)cc3)cc(C3CCC(O)CC3)n2n1 (stereo not drawn) [Compound 255],≤ 100,++ (“++” represents a ratio of between 10 and 100),≤ 100
CCCCC[C@H](C)Nc1ncc2c(-c3ccc(CN4CCN(C)CC4)cc3)cc([C@H]3CC[C@@H](O)CC3)n2n1 [Compound 105],≤ 100,+ (“+” represents a ratio of >2.0 and <10),100 to 1000
CCCCC[C@H](C)Nc1ncc2c(NC3CCN(C)CC3)cc([C@H]3CC[C@H](O)CC3)n2n1 [Compound 107],≤ 100,+++ (“+++” represents a ratio of >100),100 to 1000
COC[C@H](C)Nc1ncc2c(-c3cccc(CN4CCC(F)(F)C4)c3)cc([C@H]3CC[C@H](O)CC3)n2n1 [Compound 223],≤ 100,+++ (“+++” represents a ratio of >100),1000 to 10000
CCCCC[C@H](C)Nc1ncc2c([C@H]3CC[C@H](C(=O)N4CCOCC4)CC3)cc([C@H]3CC[C@H](O)CC3)n2n1 [Compound 108],≤ 100,+++ (“+++” represents a ratio of >100),100 to 1000
C[C@@H](CC(F)(F)F)Nc1ncc2c(-c3ccc(CN4CCOCC4)cc3)cc([C@H]3CC[C@H](O)CC3)n2n1 [Compound 203],≤ 100,++ (“++” represents a ratio of between 10 and 100),≤ 100
COC[C@H](C)Nc1ncc2c(-c3cnn(C(F)F)c3)cc([C@H]3CC[C@H](O)CC3)n2n1 [Compound 207],≤ 100,+++ (“+++” represents a ratio of >100),100 to 1000
COC[C@H](C)Nc1ncc2c(-c3ccc(C(=O)N4CCCC4)cc3)cc([C@H]3CC[C@H](O)CC3)n2n1 [Compound 196],≤ 100,+++ (“+++” represents a ratio of >100),100 to 1000

# Continued, values first:
IC50 (MERTK) [nM],FLT3/Mer ratio (FLT3 IC50/Mer IC50) (MERTK),IC50 (FLT3) [nM],SMILES
≤ 100,+++ (“+++” represents a ratio of >100),1000 to 10000,COC[C@H](C)Nc1ncc2c(-c3cnn(CC(=O)NC(C)C)c3)cc([C@H]3CC[C@H](O)CC3)n2n1 [Compound 235]
≤ 100,+++ (“+++” represents a ratio of >100),1000 to 10000,COC[C@H](C)Nc1ncc2c(-c3cncc(C(=O)N4CCN(C)CC4)c3)cc([C@H]3CC[C@H](O)CC3)n2n1 [Compound 234]
≤ 100,+++ (“+++” represents a ratio of >100),100 to 1000,COC[C@H](C)Nc1ncc2c(-c3ccc(CN4CCOCC4)nc3)cc([C@H]3CC[C@H](O)CC3)n2n1 [Compound 230]
≤ 100,+++ (“+++” represents a ratio of >100),1000 to 10000,COCC(C)Nc1ncc2c(-c3cccc(C)n3)cc(C3CCC(O)CC3)n2n1 (stereo not drawn) [Compound 253]
≤ 100,+++ (“+++” represents a ratio of >100),≤ 100,C[C@@H](COC(F)F)Nc1ncc2c(-c3cnn(C4COC4)c3)cc([C@H]3CC[C@H](O)CC3)n2n1 [Compound 270]
≤ 100,+++ (“+++” represents a ratio of >100),1000 to 10000,COC[C@H](C)Nc1ncc2c(-c3ccc(C(=O)N4CCOCC4)nc3)cc([C@H]3CC[C@H](O)CC3)n2n1 [Compound 227]
≤ 100,+++ (“+++” represents a ratio of >100),≤ 100,COCCn1cc(-c2cc([C@H]3CC[C@H](O)CC3)n3nc(N[C@@H](C)CC(F)(F)F)ncc23)cn1 [Compound 262]
≤ 100,+++ (“+++” represents a ratio of >100),100 to 1000,COC[C@H](C)Nc1ncc2c(-c3cnn(CC(=O)N4CCCC4)c3)cc([C@H]3CC[C@H](O)CC3)n2n1 [Compound 239]
≤ 100,+++ (“+++” represents a ratio of >100),100 to 1000,COC[C@H](C)Nc1ncc2c(-c3cnn(CC(=O)N[C@H]4CCOC4)c3)cc([C@H]3CC[C@H](O)CC3)n2n1 [Compound 237]
≤ 100,+++ (“+++” represents a ratio of >100),100 to 1000,CNC(=O)Cn1cc(-c2cc([C@H]3CC[C@H](O)CC3)n3nc(N[C@@H](C)COC)ncc23)cn1 [Compound 241]
≤ 100,+++ (“+++” represents a ratio of >100),100 to 1000,COC[C@H](C)Nc1ncc2c(-c3ccnc(N4CCOCC4)c3)cc([C@H]3CC[C@H](O)CC3)n2n1 [Compound 259]
≤ 100,+++ (“+++” represents a ratio of >100),1000 to 10000,COC[C@H](C)Nc1ncc2c(-c3cnn(CC(C)(C)O)c3)cc([C@H]3CC[C@H](O)CC3)n2n1 [Compound 264]
≤ 100,+++ (“+++” represents a ratio of >100),1000 to 10000,COC[C@H](C)Nc1ncc2c(-c3cncc(C(=O)N4CCOCC4)c3)cc([C@H]3CC[C@H](O)CC3)n2n1 [Compound 233]
